Where “and” joins values, the source holds several entries; their conditions need not be identical. Identical values can stand only once.
Assays:
Assay type in all cases: physicochemical
[1] = Kinematic viscosity with capillary Cannon-Fenske viscometers; Viscosity Index calculated per ASTM D2270; settings: for Viscosity Index: calculated per ASTM D2270 from viscosities at 40°C and 100°C; for Viscosity, mm^2/s at 40°C: kinematic viscosity at 40°C; for Viscosity, mm^2/s at 100°C: kinematic viscosity at 100°C
Description: Kinematic viscosities at 40°C and 100°C were measured using capillary Cannon-Fenske viscometers per ASTM […]. Viscosity Index (the value, describing the rate of thinning with increasing temperature) was calculated per ASTM D2270.

[2] = Pour point and cloud point, cooling regime of ASTM D97; settings: for Cloud point, °C: visual inspection during the same run; for low temperature fluidity: result in words
Description: Pour points and cloud points were determined using the same thermal cooling regime, as instructed by ASTM D97. The sample sizes were 5 to 15 mL during the measurements.
Cloud points were determined during the same run by visual inspection of the sample appearance at low temperature. The samples were removed from the freezer every 3°C for visual inspection and, if cloudy, meniscus movement with inversion. The pour point resembled the last measurement, at which the meniscus boundary was still moving within 5 seconds of horizontal inversion. All samples were tested in duplicate.
In engine oils and hydraulic fluids, low temperature fluidity is primarily determined by pour points [ASTM D97]. Generally, pour points below -30°C are considered sufficient. Some polymer additives, e.g. "Pour Point Depressants" (PPD), are able to improve low temperature fluidity. […] Therefore, initially pour points and cloud points [ASTM D2500 "Standard Test Method for Cloud Point of Petroleum Products and Liquid Fuels"] of α-ω dibasic esters were evaluated and shown in Table 4.

[3] = Thin film test, oxidative stability (time to insoluble residues and to solidification); settings: 500 µm thick films at 120°C; for Vapor loss at solidification: at the duration of full film solidification
Text: (§1) The exact procedure, used here, has been described in detail by Stoncius, A. et al. in "Volatiles from Thin Film Degradation of Bio-based, Synthetic and Mineral Basestocks", published in Industrial Lubrication & Tribology, 2013, 65 (3) 209-215, 2013, Emerald Group Publishing Edition or by Brazinskiene, D. et al. in "Ester Basestock Vaporisation from Thin Oil Films", published in Lubrication Science, DOI: 10.1002/ls.1372, pp 1-17, 2017, Wiley Edition.
(§2) Briefly, an oil film of 500 µm thickness was coated on steel coupon and heated at given temperature for specific duration in a forced-draft oven. Afterwards, the volatile losses and insoluble residues were measured gravimetrically.
Therefore, thin films of commercial basestocks and α-ω dibasic esters were compared by exposing their thin films to 120°C as described by Stoncius, A. et al. in "Volatiles from Thin Film Degradation of Bio-based, Synthetic and Mineral Basestocks" published in Industrial Lubrication & Tribology, 2013, 65 (3), 209-215, Emerald Group Publishing Edition or by Brazinskiene, D. et al. in "Ester Basestock Vaporisation from Thin Oil Films" published in Lubrication Science, DOI: 10.1002/ls.1372, pp 1-17, 2017, Wiley Edition.
The thin-film method determines how resistant oil is against formation of insoluble residues during oxidation. Degradation durations until initial formation of solid residues and complete solidification directly relate to oxidative stability.

[4] = Thin film test, volatile losses (500 µm oil film on steel coupon, forced-draft oven, gravimetric); settings: for Volatile emissions, 16 hrs / Volatile emissions, 36 hrs: 500 µm thick films at 120°C
Text: as §1, §2
As discussed in the prior-art review, volatility can be successfully evaluated in a thin film test as described by Stoncius, A. et al. in "Volatiles from Thin Film Degradation of Bio-based, Synthetic and Mineral Basestocks" published in Industrial Lubrication & Tribology, 2013, 65 (3) 209-215, Emerald Group Publishing Edition or by Brazinskiene, D. et al. in "Ester Basestock Vaporisation from Thin Oil Films" published in Lubrication Science, DOI: 10.1002/ls.1372, pp 1-17, 2017, Wiley Edition. This thin-film method is much better suited for hydraulic fluid applications than NOACK or other tests, which employ 250°C or similar temperatures, related to engine oil applications. Also, the above method accounts for longer term decomposition reactions due to exposure to metal surfaces and oxidation, which is prevalent in hydraulic applications. Therefore, using the thin-film method short-term vapor losses were measured after 16 hrs and decomposition trends were compared after 36 hrs of testing. Heating temperature of 120°C was selected to compare thin films of α,ω dibasic esters with commercial basestocks. Table 5. Volatile emissions, % w/w from 500 µm thick films of α-ω dibasic esters and commercial basestocks at 120°C

[5] = Solubility of lubricant additives in the basestocks
Description: Several typical lubricant additives have been tested for solubility in α-ω dibasic esters of 2-ethyl hexanol 26U18 and 26S12 as well as commercial basestock 350N. The additives were mixed in at temperatures of 50°C or lower and held for longer than a week at room temperature. Table 7. Solubility of lubricant additives, dissolved in α-ω dibasic esters and commercial basestocks
The additives were selected to represent different chemical categories: soaps, heterocycles, phosphorous derivatives, polymers, etc. Most of these additives are designed to be dissolved in paraffinic mineral oils and synthetic lubricants with some heating. It is often thought that esters are better solvents than mineral oils or synthetic hydrocarbons like poly α-olefins. Therefore, the tested concentrations were much higher than additive proportions for hydraulic fluids, as recommended by the additive manufacturers.

Compound	Viscosity Index [1]	Viscosity, mm^2/s at 40°C [1]	Viscosity, mm^2/s at 100°C [1] [mm^2/s]	Pour point, °C [2]	Cloud point, °C [2]	Full solidification observed [3] [h]	Initial residues observed [3] [h]	Vapor loss at solidification [3] [% w/w]	Volatile emissions, 16 hrs [4] [% w/w]	Volatile emissions, 36 hrs [4] [% w/w]	Solubility of 1% w/w Vanlube 7723 ([5]; Alkyl dithiocarbamate, mixed in at 50°C or lower, held longer than a week at room temperature)	Solubility of 1% w/w Irgalube ML605A ([5]; Amine and phosphate derivatives, mixed in at 50°C or lower, held longer than a week at room temperature)	Solubility of 1% w/w Vanlube 7611 M ([5]; Phosphoro dithioate, mixed in at 50°C or lower, held longer than a week at room temperature)	Solubility of 5% w/w Viscoplex 10-310 ([5]; Poly alkyl methacrylate, mixed in at 50°C or lower, held longer than a week at room temperature)	Solubility of 2% w/w Vanlube RI- A ([5]; Soap and ester derivatives, mixed in at 50°C or lower, held longer than a week at room temperature)	Solubility of 1% w/w Cobratec TT-100 ([5]; Tolyl triazole, mixed in at 50°C or lower, held longer than a week at room temperature)	Initial solution appearance ([5]; all tested additives blended in, unchanged after 1 week at room temperature)	volatility ([4]; result in words, thin films at 120°C)	low temperature fluidity [2]
1,9-di(2-ethylhexyl) nonanedioate [26S9, reference compound]	111	10.5 mm^2/s	2.8	-57 °C	-38 °C	553	367	92	2.65	4.7	–	–	–	–	–	–	–	–	–
1,12-di(2-ethylhexyl) dodecanedioate [26S12, reference compound]	147	14.72 mm^2/s	3.72	-48 °C	-30 °C	655	583	86	0.8	1.75	soluble	soluble	soluble	soluble	soluble	soluble	bright and clear	much lower volatility	–
1,18-di(1-methylheptyl) octadec-9-enedioate [17U18]	205	21.2 mm^2/s	5.35	-21 °C	-18 °C	463	343	63	0.87	7	–	–	–	–	–	–	–	–	much poorer low temperature fluidity
1,18-di(2-butyloctyl) octadec-9-enedioate [48U18]	163	36.09 mm^2/s	7.09	-54 °C	-48 °C	320	248	47	1.7	9.8	–	–	–	–	–	–	–	–	–
1,18-di(2-propylheptyl) octadec-9-enedioate [37U18]	174	28.7 mm^2/s and 28.74 mm^2/s	6.39	-51 °C	-51 °C	324	248	54	3.5	10.6	–	–	–	–	–	–	–	–	–
1,18-di(3,3,5-trimethylhexyl) octadec-9-enedioate [9U18]	202	28.8 mm^2/s	6.7	-33 °C	-33 °C	367	344	71	5	13.9	–	–	–	–	–	–	–	–	–
1,18-di(3-methylbutyl) octadec-9-enedioate [5U18]	196	12.93 mm^2/s	3.73	-24 °C	-24 °C	225	152	66	12.6	23.7	–	–	–	–	–	–	–	–	–
1,18-dimethyl octadec-9-enedioate [1U18]	204	8.68 mm^2/s	2.85	> +15 °C	> +15 °C	344	248	–	9.4	25.6	–	–	–	–	–	–	–	–	much poorer low temperature fluidity
1-(3,7,11,15-tetra methyl-2-hexadecenyl) - 18-(2-ethylhexyl) octadec-9-enedioate [2026U18]	175	42.54 mm^2/s	8.3	-66 °C	-63 °C	176	152	39	6.7	13.4	–	–	–	–	–	–	–	–	–
CCCCCCC(C)OC(=O)CCCCCCCCCCCCCCCCC(=O)OC(C)CCCCCC (stereo not shown) [17S18, 1,18-di(1-methylheptyl) octadecanedioate, reference compound]	180	22.7 mm^2/s	5.31	+9 °C	+9 °C	–	–	–	–	–	–	–	–	–	–	–	–	–	very problematic low temperature fluidity
CCCCC(CC)COC(=O)CCCCCCCCCCCCCCCCC(=O)OCC(CC)CCCC (stereo not shown) [26S18, 1,18-di(2-ethylhexyl) octadecanedioate, reference compound]	194	23.9 mm^2/s	5.71	-9 °C	-9 °C	–	–	–	–	–	–	–	–	–	–	–	–	–	very problematic low temperature fluidity
CCCCCCC(CCCC)COC(=O)CCCCCCCC=CCCCCCCCC(=O)OCC(CC)CCCC (stereo not shown) [4826U18, 1-(2-butyloctyl)-18-(2-ethylhexyl)octadec-9-enedioate]	205	28.97 mm^2/s	6.78	-51 °C	-51 °C	325	248	57	3.8	10.1	–	–	–	–	–	–	–	–	–

Reference: patent EP3483233A1, “LUBRICANT BASE OIL COMPOSITIONS OF MONO-UNSATURATED DIBASIC ACID ESTERS WITH BRANCHED ALCOHOLS” (ARKEMA FRANCE, priority 2017, dated 2019)
